Legend:
[1] = test system: mRNA of Type I collagen gene in renal glomerulus; assay: mRNA of Type I collagen gene in renal glomerulus of anti-Thy-1 antibody-administered rats (improvement of chronic renal failure); assay type: in vivo, rat; details: 15 mg/kg/day orally for 7 days in corn oil; for ability to improve chronic renal failure: Example 5, anti-Thy-1 antibody rats; for mRNA of collagen gene: Type I collagen amount/GAPDH amount, renal cortex, anti-Thy-1 antibody +, Wistar rats
Experimental: IgG was purified from an ascites-lyophilized powder (CEDARLANE, lot No. 05122) containing an anti-rat CD90 (Thy1.1) monoclonal antibody using MAbTrap kit (Amersham Biosciences, catalogue No. 17-1128-01).
6 ml of a binding buffer was added to 3 ml of ascites to sufficiently recover it, and this was passed through a 0.22 μm filter. The resulting solution was applied to a pre-bufferized column, and the column was then washed with 10 ml of a binding buffer. Thereafter, the column was eluted with 5 ml of an elution buffer. From washing, each 1 ml was fractionated, and the protein concentration of each fraction was measured using bovine serum albumin as a standard. A single peak was confirmed from an elution pattern, and an IgG fraction was dialyzed against a physiological saline overnight at 4° C. The protein concentration of the resulting anti-Thy-1 antibody (IgG) was calculated.
The present compounds represented by the compound numbers (28a) (hereinafter, referred to as the present compound (28a)), the present compound represented by a compound number (30a) (hereinafter, referred to as the present compound (30a)), the present compound represented by a compound number (33a) (hereinafter, referred to as the present compound (33a)), the present compound represented by a compound number (10e) (hereinafter, referred to as the present compound (10e)), the present compound represented by a compound number (18e) (hereinafter referred to as the present compound (18e)), the present compound represented by a compound number (31e) (hereinafter, referred to as the present compound (31e)) and a corn oil which is a medium were weighed. These were mixed using a mortar and a pestle to prepare a […]. Using four 7-week old male Wistar rats [Nippon Charles River] per group, 60 μg/ml of the anti-Thy-1 antibody (IgG) or a physiological saline was intravenously injected via a tail vein at 5 ml/kg. […] A dose of the present compound was 15 mg/kg/day.
On the next day of final administration, a rat reared as described in the above (2) was slaughtered by collection of whole blood, and kidneys were isolated. A whole RNA was separated from the cortex of the isolated kidney using RNeasy Mini Kit (QIAGEN, catalogue No. 74106). To 5 μl (50 ng) of the separated whole RNA were added 1 μl of 20 μM oligo dT and 4 μl of RNase-free distilled water. After the mixture was incubated at 65° C. for 5 minutes, it was immediately ice-cooled. To 10 μl of the solution were added 4 μl of 5× buffer, 2.4 μl of MgCl2, 1 μl of 10 mM dNTP, 1 μl of RNasin, 1 μl of Improm II and 0.6 μl of RNase-free distilled water (all available from Promega), and a reverse transcription reaction was performed under the condition of at 25° C. for 5 minutes, at 42° C. for 1 hour, and at 70° C. for 15 minutes.
Into 5 μl of the reverse transcription reaction solution were mixed each 2 μl of each 1.25 pmol/μl of primers represented by SEQ ID NOS: 3 and 4, 1.25 μl of a probe (FAM-ctcgccttca tgcgcctgct agc-TAMRA) for detecting DNA of a Type I collagen gene represented by SEQ ID No:5, each 0.25 μl of Rodent GAPDH primers, 0.25 μl of a Rodent GAPDH probe, 12.5 μl of TaqMan Universal PCR Master Mix (all available from Applied Biosystem) and 1.5 μl of sterilized water in a well of Optical 96-Well Reaction Plate (Applied Biosystem, catalogue No. N801-0560). As a standard, in place of 5 μl of the reverse transcription reaction solution, each 5 μl of 500, 250, 125, 62.5, 31.25, 15.625 ng/μl rat renal cortex cDNA which had been prepared in advance was used. Thereafter, using Gene Amp 7900 (Applied Biosystem), PCR was performed under the condition of at 50° C. for 5 minutes, and 40 cycles in which one cycle is at 95° C. for 15 seconds and at 60° C. for 1 minute. […]

[2] = test system: ability of TGF-β to promote transcription of a Type I collagen gene; assay: Inhibition of the ability of TGF-β to promote transcription of a Type I collagen gene (COL-Luc reporter gene assay); assay type: cell-based; details: final concentration 1 μM; TGF-β added; normal human fetal skin fibroblast transfected with COL-Luc; 40 hours; read-out: Inhibition percentage
Experimental: 1×10^8 cells of a normal human fetal skin fibroblast (Clontech, catalogue No. CC-2509) were cultured at 37° C. overnight under 5% CO2 atmosphere. After the cultured cells were washed with a sodium phosphate buffer (hereinafter, referred to as PBS) twice, 3 ml of PBS was added thereto and the cells were scraped away the wall of a vessel using a cell scraper (Nalgen, catalogue No. 179693). The scraped cells were collected by centrifugation (1,500 rpm, 4° C., 15 min), and these were suspended in 20 ml of PBS and centrifuged again. To the resulting precipitates were added 11 ml of Solution 2 and 4.8 μl of pronase of DNA Extraction Kit (Stratagene, catalogue No. 200600). After shaken at 60° C. for 1 hour, the resulting mixture was allowed to stand in ice for 10 minutes. Then, 4 ml of Solution 3 of the kit was added to the mixture. After mixed, the mixture was allowed to stand in ice for 5 minutes and then centrifuged (3,000 rpm, 4° C., 15 min) to recover a supernatant. To the recovered supernatant was added 2 μl of RNase per 1 ml of the supernatant and the mixture was allowed to stand at 37° C. for 15 minutes. To the mixture was added 2-fold volume of ethanol. After mixed, a white thread-like substance (genomic DNA) appeared and the substance was recovered. The recovered genomic DNA was washed with 70% ethanol and then air-dried. The air-dried genomic DNA was dissolved in 500 μl of 10 mM Tris-HCl, 1 mM EDTA (pH 8.0) (hereinafter, referred to as TE).
The resulting genomic DNA solution (the amount equivalent to 1 μg of genomic DNA), each 1 μl (10 pmol/μl) of an oligonucleotide consisting of the nucleotide sequence represented by SEQ ID No:1 and an oligonucleotide consisting of the nucleotide sequence represented by SEQ ID No:2, 29 μL of distilled water, 5 μl of the buffer attached to TaKaRa LA Taq (TAKARA SHUZO, catalogue No. RR002A), 5 μL of a Mg^2+ solution, 5 μL of a dNTP mixture and 0.5 μl of TaKaRa LA Taq (TAKARA SHUZO, catalogue No. RR002A) were mixed. After the resulting mixed solution was incubated at 94° C. for 5 minutes, the mixed solution was subjected to 30 cycles, in which one cycle consists of incubation at 94° C. for 1 minute, at 60° C. for 1 minute and then at 72° C. for 1 minute. The mixed solution was electrophoresed on a 2% agarose gel to recover about 0.5 kb of a DNA. The recovered DNA was treated with phenol/chloroform and then precipitated with ethanol to recover the DNA. The resulting DNA was dissolved in ultrapure water. To this solution were added 2.5 μl of NheI and 2.5 μl of HindIII, and then incubated at 37° C. for 3 hours. Then, the solution was electrophoresed on a 2% agarose gel to recover about 3.5 kb of a DNA. The recovered DNA was precipitated with ethanol to recover again the DNA (hereinafter, referred to as the collagen promoter DNA).
On the other hand, the vector pGL3 (Promega, catalogue No. E1751) having the nucleotide sequence encoding firefly luciferase was digested with NheI and HindIII, and then subjected to agarose gel electrophoresis as described above to recover about 5 kb of a DNA. The recovered DNA was precipitated with ethanol to recover the DNA again. To the recovered DNA were added 44 μl of distilled water, 5 μl of Buffer attached to Alkaline Phosphatase (TAKARA SHUZO, catalogue No. 2120A) and 1 μl of Alkaline Phosphatase (TAKARA SHUZO, catalogue No. 2120A). The mixed solution was incubated at 65° C. for 30 minutes. Then, the mixed solution was treated with phenol/chloroform twice, and precipitated with ethanol to recover the DNA (hereinafter referred to as the Luc vector DNA). Then, after about 20 ng of the collagen promoter DNA and about 20 ng of the Luc vector DNA were mixed, the same amount of a DNA Ligation kit Ver2 enzyme solution was added and this was incubated overnight at 16° C. To the mixed solution was added Escherichia coli 5Hdα (TOYOBO, catalogue No. DNA-903), this was allowed to stand in ice for 30 minutes, and then incubated at 42° C. for 45 seconds. […]

[3] = Table 4, control group 5.6, normal group 1.7, test results p < 0.01

N#CCOc1cccc(C=CC(=O)c2c(O)c3ccccc3[nH]c2=O)c1 [Compound No. (10e), 4-hydroxy-3-[3-[3-(cyanomethoxy)phenyl]-1-oxo-2-propenyl]-2(1H)-quinolinone]
ability to improve chronic renal failure [1]: have the ability to improve chronic renal failure | mRNA of collagen gene [1, 3]: 2.0 | inhibition at 1 µM [2]: ≥ 70%

COCC(=O)Nc1cccc(C=CC(=O)c2c(O)c3ccccc3[nH]c2=O)c1 [Compound No. (18e), 4-hydroxy-3-[3-[3-(methoxyacetylamino)phenyl]-1-oxo-2-propenyl]-2(1H)-quinolinone]
ability to improve chronic renal failure [1]: have the ability to improve chronic renal failure | mRNA of collagen gene [1, 3]: 1.9 | inhibition at 1 µM [2]: ≥ 70%

COC(=O)CNC(=O)c1cccc(C=CC(=O)c2c(O)cc(C)[nH]c2=O)c1 [Compound No. (28a), 4-hydroxy-3-[3-[3-[[(methoxycarbonylmethyl)amino]carbonyl]phenyl]-1-oxo-2-propenyl]-6-methyl-2(1H)-pyridinone]
ability to improve chronic renal failure [1]: have the ability to improve chronic renal failure | mRNA of collagen gene ([1]; Table 3, control group 3.4, normal group 1.9, test results p < 0.05): 2.0 | inhibition at 1 µM [2]: ≥ 70%

COCCNC(=O)c1ccc(C=CC(=O)c2c(O)c3ccccc3[nH]c2=O)cc1 [Compound No. (31e), 4-hydroxy-3-[3-[4-[(2-methoxyethyl)aminocarbonyl]phenyl]-1-oxo-2-propenyl]-2(1H)-quinolinone]
ability to improve chronic renal failure [1]: have the ability to improve chronic renal failure | mRNA of collagen gene [1, 3]: 3.3 | inhibition at 1 µM [2]: ≥ 70%
